Measurements: paper PMC7984827, “A high-content AlphaScreen™ identifies E6-specific small molecule inhibitors as potential therapeutics for HPV^+ head and neck squamous cell carcinomas” (Oncotarget, 2021)
Where two headings read alike, the source gives them in different places.

Legend:
SCC104 (HPV+) = assay: Colony formation assay, SCC104; assay type: cell-based; conditions: 24 hours treatment then seeded
Procedure: (§1) Sub-confluent monolayer cells were treated with different doses of GA-OH for 24 hours. Cells were trypsinized and re-suspended before re-plating into 6 well plates in DMEM or MEM at 500–1000 cell densities, depending on the cell line. Cells were then allowed to grow for 10–20 days, depending on the cell line, before fixing and staining. A mixture of methanol/acetic acid was used for fixing, followed by 0.5% crystal violet staining. Plates were imaged using UV imager, and colonies with more than […] counted using image J. Surviving fractions were determined by dividing the number of colonies by the number of cells seeded as a product of the corresponding plating efficiency. Survival fractions curves were plotted using GraphPad Prism.

E6-Caspase 8 binding = target: T1, E6-Caspase 8 binding (Human papillomavirus type 16, UniProt P03126); assay: biochemical; parameters: species or system HPV E6, human Caspase 8; conditions: for inhibitory activity against E6-caspase 8 binding relative to GA (in words): SAR of analogs, Figure 6A; for activity against E6-caspase 8 binding, deviation from the parent compound (less active): relative to gambogic acid
T1 construct: made in house; host or cells: E. coli
Procedure: The compounds were diluted to a working concentration in DMSO and screened at a single-point final concentration of 10 μM with no replicates. Briefly, 75 nL of each compound was transferred and added to wells of the destination 384-well plate using the Echo dispenser to 4 μL of blocking solution. 4 μL of 800 nM GST-E6 and 4 μL of His6-Caspase 8 were added and pre-incubated at room temperature for 60 minutes. 8 μL of the donor and acceptor bead mixture (final concentration of 20 μg/ml) was then added. The plates were sealed and incubated for 4 hours at room temperature before the plates were read using the EnvisionTM Multi-Label plate reader (Perkin Elmer Inc.). […] A 10-point serial dilution of these compounds was done for dose-dependency reconfirmation. Dose response inhibition curves were constructed and IC50 calculated using GraphPad Prism using four parameter non-linear regression analysis.
The first counter-screen assay was based using the GST-His6 fusion peptide as the E6-binding partner instead of GST-E6-His6-Caspase 8. Hit candidate compounds from the primary screen were prepared using a 6-point serial dilution. Using an Echo dispenser, compounds were transferred to plates containing 4 μL of blocking buffer. 8 μL of 5 nM GST-His6 peptide substrate was then added. The mixture was pre-incubated at room temperature for 60 minutes. Glutathione donor and nickel chelate acceptor beads (final concentration 20 μg/mL) were added and incubated for another 60 minutes at room temperature. Dose-dependency of the compounds using GST-E6-His6-Caspase 8 was performed in parallel using the same protocol as in the primary screen. The signals were then read using the Envision™ plate reader.
(§2) Using the SciFinder and Zinc15 databases, we searched and identified several gambogic acid structural analogs. A subset of these analogues was commercially available and we purchased 8. The 8 analogs were obtained as follow: gambogenic amide (Enzo Life Sciences), gambogenic acid (Selleckchem), morellic acid (Aobious), 30-hydroxy gambogic acid (Quality Phytochemicals, LLC), acetyl gambogic acid (Microsource), and gambogin, neogambogic acid and isomorellinol (MolPort Natural Products). Additional gambogic acid was purchased from Tocris. The interactions of the analogues with E6-caspase 8 was tested using AlphaScreen™ technology using the same protocol as with the primary screen, and were compared to the parent compound. The effect on cell viability was also similarly done in HPV^+ and HPV^- cell lines via the MTT assay (see below) and potency was determined using GraphPad IC50 curve fitting.

[1] = tested on: Caspase 3/7 activity in SCC19, SCC84; assay: Caspase 3/7 Glo activity assay, HPV- cell lines; assay type: cell-based; conditions: 0.75 μM, 24 hr
Procedure: (§3) Cells were seeded into white walled 96-well plates at 2 × 10^4 cells per well in 100 μL media and incubated overnight. GA-OH (0.75 μM) and vehicle were then added and incubated at 37°C for 24 hr. Caspase 3/7 activity was measured using the Caspase 3/7 Glo kit (Promega, Fitchburg, WI, USA) following the manufacturer's instructions. Briefly, room temperature-equilibrated Caspase-Glo reagent was added (Promega) to each well. The plate was mixed by placing it on an orbital shaker and incubated for 30 secs at room temperature, then incubated at room temperature. After a 2-hr incubation, luminescence was measured using a plate-reading fluorimeter (Flx800, Bio-Tek Instrument Co., Winooski, VT, USA). Background activity (blank reaction) was subtracted from all experimental wells. Percent activity of caspase 3/7 in wells treated with GA was then expressed relative to vehicle treated wells.

[2] = tested on: p53, p21, caspase 8 in SCC90 and SCC104 cells; assay: Western blotting of p53, p21 and caspase 8 in HPV+ cells; assay type: cell-based; conditions: 24 hours
Procedure: Adherent cells were washed with ice cold PBS. Cell lysis buffer containing protease inhibitor cocktail was added and cells were scraped off into a tube on ice. The cells were incubated on ice for 10 minutes. Cell lysates were separated by SDS-PAGE and electrophoretically transferred to PVDF membranes. Following blocking, antibodies directed against caspase 8, p53, cleaved PARP, cleaved caspase 3, p21, and β-actin (Cell signaling) were applied at 1:5000 dilution. Anti-mouse and anti-rabbit secondary antibodies were then employed (LI-COR Biosciences, Lincoln, NE, USA). Signals were measured using the Odyssey Infrared Imaging system (LI-COR Biosciences) and quantified using Image J.

[3] = tested on: HPV+ HNSCC cell line SCC104; assay: MTT cell viability assay of analogs in SCC104; assay type: cell-based; conditions: SCC104, 24 hr; for activity / potency in cell-based MTT assay (in words): Figure 6B
From the text: as §2
(§4) All working concentrations were diluted in PBS to the desired concentration before use. To test the effect of gambogic acid and/or its derivatives on cell viability, all cell lines were seeded at 2 × 10^4 per well in 96-well plates and allowed to adhere overnight. Various concentrations of the analogues were added and the cells incubated at 37°C for 24 hr. Viability was then measured using the MTT assay, performed as described previously. All experiments were repeated at least three times (three biological replicates, carried out on different days). Data presented are from a representative experiment. Cell viability and potency were assessed from % inhibition relative to the vehicle control, and IC50 dose curves were generated using GraphPad Prism.

SCC19 (HPV-) = assay: Colony formation assay, SCC19; assay type: cell-based; conditions: 24 hours treatment then seeded
Procedure: as §1

[4] = tested on: Caspase 3/7 activity in SCC090, SCC104, SiHa; assay: Caspase 3/7 Glo activity assay, HPV+ cell lines; assay type: cell-based; conditions: 0.75 μM, 24 hr
Procedure: as §3

[5] = tested on: HPV+ (SCC47, SCC090, SCC104, SCC152) and HPV- (SCC19, SCC29, SCC49, SCC84) HNSCC cell lines; assay: MTT cell viability, HNSCC cell line panel; assay type: cell-based; conditions: 24 hr, Figure 7A
Procedure: as §4

E6-E6AP binding = target: T2, E6-E6AP binding (Human papillomavirus type 16, UniProt P03126); assay: biochemical; parameters: species or system HPV E6
T2 construct: made in house; host or cells: E. coli
From the text: Compounds that passed the two counter-screens were subjected to cheminformatic analysis as an additional filter for recognition and exclusion of compounds with problematic substructures. These substructures contain functional groups that may disrupt binding in many unrelated biochemical assays in a non-specific manner. Specifically, from the names and SMILES of the hit compounds we queried the following databases to find hits with pan assay interference (PAINS) patterns: Zinc15, SwissADME, FAFdrugs4 and PAINS-Remover. Compounds that made it onto the consensus list as having no PAINS patterns after filtering with these online tools were then selected. We then cross-validated the selected compound(s) with a related but different primary screen assay. Specifically, we replaced the caspase 8 used in the primary screen with E6AP and evaluated the inhibitory activity against E6 binding to E6AP (E6-E6AP) using the same steps as in the AlphaScreen™ protocol described above.

[6] = parameters: method as in PMID 18384990, PMID 29077076; conditions: toxicities to organs only at high concentrations; cited from earlier work

T1 sequence (P03126 whole entry): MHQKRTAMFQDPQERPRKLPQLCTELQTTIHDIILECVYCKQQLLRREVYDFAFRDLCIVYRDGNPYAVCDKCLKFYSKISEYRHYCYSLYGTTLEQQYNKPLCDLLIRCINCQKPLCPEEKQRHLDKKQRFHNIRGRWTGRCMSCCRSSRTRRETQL
T2 sequence (P03126 whole entry): as above

CC(C)=CCCC1(C)C=Cc2c(O)c3c(c(CC=C(C)C)c2O1)OC12C(=CC4CC1C(C)(C)OC2(CC=C(CO)C(=O)O)C4=O)C3=O (stereo not drawn) [GA-OH, 30-hydroxygambogic acid]
number of colonies (SCC104 (HPV+)): significantly and dose-dependently reduced | inhibitory activity against E6-caspase 8 binding relative to GA (in words) (E6-Caspase 8 binding): more effectively inhibited E6 binding to caspase 8 than any of the other analogs or the parent compound | apoptosis activity (Caspase 3/7 activity) [1]: little to no apoptosis activity | caspase 8 cleavage by western blot ([2]; HPV+ cells, 0.5 μM and 1 μM): cleavage of caspase 8 in a dose-dependent manner | p53 level by immunoblotting ([2]; SCC90 and SCC104, 0.5 μM and 1 μM): increase of p53 | p21 level by immunoblotting ([2]; compared to vehicle control, 0.5 μM and 1 μM): robust induction | activity / potency in cell-based MTT assay (in words) [3]: highest potency of all analogs | number of colonies (SCC19 (HPV-)): did not exhibit significant reduction relative to their control except at high concentrations | apoptosis induction (Caspase 3/7 activity) [4]: Significant apoptosis induction | sensitivity of HPV+ versus HPV- HNSCC cell lines, MTT cell viability [5]: higher sensitivity

CC(C)=CCc1c2c(c(O)c3c1O[C@]14C(=C[C@@H]5C[C@H]1C(C)(C)O[C@@]4(C/C=C(/C)C(=O)O)C5=O)C3=O)C=CC(C)(C)O2 [analog #2, morellic acid]
inhibitory activity against E6-caspase 8 binding relative to GA (in words) (E6-Caspase 8 binding): did not significantly affect the activity

CC(C)=CCC/C(C)=C/Cc1c(O)c(CC=C(C)C)c2c(c1O)C(=O)C1=C[C@@H]3C[C@H]4C(C)(C)O[C@@](C/C=C(/C)C(=O)O)(C3=O)[C@@]14O2 [analog #3, gambogenic acid]
activity against E6-caspase 8 binding, deviation from the parent compound (less active) (E6-Caspase 8 binding): > 3 logs | rank of highest IC50 relative to the parent compound, MTT [3]: third

CC(C)=CCC[C@]1(C)C=Cc2c(O)c3c(c(CC=C(C)C)c2O1)O[C@]12C(=C[C@@H]4CC1C(C)(C)O[C@@]2(C/C=C(/C)C(N)=O)C4=O)C3=O [analog #4, gambogic amide]
inhibitory activity against E6-caspase 8 binding relative to GA (in words) (E6-Caspase 8 binding): did not significantly affect the activity

CC(C)=CCCC1(C)CC(O)c2c(O)c3c(c(CC=C(C)C)c2O1)OC12C(=CC4CC1C(C)(C)OC2(C/C=C(\C)C(=O)O)C4=O)C3=O (stereo not drawn) [analog #5, neo-gambogic acid]
activity against E6-caspase 8 binding, deviation from the parent compound (less active) (E6-Caspase 8 binding): > 3 logs | rank of highest IC50 relative to the parent compound, MTT [3]: fourth

CC(C)=CCCC1(C)C=Cc2c(O)c3c(c(CC=C(C)C)c2O1)O[C@]12C(=CC4C[C@H]1C(C)(C)OC2(CC=C(C)C)C4=O)C3=O (stereo partly drawn) [analog #6, gambogin]
activity against E6-caspase 8 binding, deviation from the parent compound (less active) (E6-Caspase 8 binding): > 3 logs | rank of highest IC50 relative to the parent compound, MTT [3]: first

CC(C)=CCc1c2c(c(O)c3c1OC14C(=CC5CC1C(C)(C)OC4(C/C=C(\C)CO)C5=O)C3=O)C=CC(C)(C)O2 (stereo not drawn) [analog #7, iso morellinol]
inhibitory activity against E6-caspase 8 binding relative to GA (in words) (E6-Caspase 8 binding): did not significantly affect the activity

CC(=O)Oc1c2c(c(CC=C(C)C)c3c1C(=O)C1=C[C@@H]4CC5C(C)(C)OC(C/C=C(\C)C(=O)O)(C4=O)[C@@]15O3)OC(C)(CCC=C(C)C)C=C2 (stereo partly drawn) [analog #8, acetyl iso-gambogic acid]
inhibitory activity against E6-caspase 8 binding relative to GA (in words) (E6-Caspase 8 binding): did not significantly affect the activity | activity / potency in cell-based MTT assay (in words) [3]: diminished activity

CC(C)=CCC[C@]1(C)C=Cc2c(O)c3c(c(CC=C(C)C)c2O1)O[C@]12C(=C[C@@H]4C[C@H]1C(C)(C)O[C@@]2(C/C=C(/C)C(=O)O)C4=O)C3=O [gambogic acid]
IC50 (E6-Caspase 8 binding; 11 compounds that passed counter-screening (Supplementary Table 3), read-out: IC50 against E6-Caspase 8 binding): 2 µM | IC50 (E6-Caspase 8 binding; head-to-head comparison gambogic acid vs myricetin (Figure 4A), read-out: IC50 against E6-Caspase 8): 1.9 µM | IC50 (E6-E6AP binding): 1.7 µM | tolerability in animal studies [6]: relatively tolerable

O=c1c(O)c(-c2cc(O)c(O)c(O)c2)oc2cc(O)cc(O)c12 [myricetin, reference compound]
IC50 (E6-Caspase 8 binding; IC50 against E6-Caspase 8): 4.6 µM | IC50 (E6-E6AP binding): 5.6 µM
